These results are taken from patent US20060014723A1, “Anti-parasitic uses of borinic acid complexes” (priority 2004, published 2006).

In brackets after ≈: the same amount, converted by molar mass.

One assay relates to P. falciparum K1. In words: Malaria in vitro screening model (3H-hypoxanthine incorporation). Format: cell-based, Plasmodium falciparum. Particulars: Plasmodium falciparum, K1. The procedure:
[…] P. falciparum K1 is used in this study. K1 (a clone originating from Thailand) is resistant to chloroquine and pyrimethamine. The strains are maintained in RPMI 1640 medium with 0.36 mM hypoxanthine, supplemented with 25 mM N 2-hydroxyethyipiperazine-N-2-ethane-sulphonic acid (HEPES), 25 mM NaHCO3, neomycin (100 U/mL) and 5 g/L of ALBUMAX® II (lipid-rich bovine serum albumin, GIBCO, Grand Island, N.Y., USA), together with 5% washed human A+ erythrocytes. All cultures and assays are conducted at 37° C. under an atmosphere of 4% CO2, 3% O2 and 93% N2. Cultures are kept in incubation chambers filled with the gas mixture. Subcultures are diluted to a parasitemia of between 0.1 and 0.5% and the medium is changed daily.
Antimalarial activity is assessed using an adaptation of the procedures described by Desjardins et al. (Antimicrob. Agents Chemother. 16:710-718, 1979), and Matile and Pink (In: Lefkovits, I. and Pernis, B. (Eds.), Immunological Methods Vol. IV, Academic Press, San Diego, pp. 221-234, 1990).
Stock drug solutions are prepared in 100% dimethylsulfoxide (DMSO) at 10 mg/mL, and heated or sonicated if necessary to dissolve the sample. After use, the stocks are kept at −20° C. For the assays, the compound is further diluted in serum-free culture medium and finally to the appropriate concentration in complete medium without hypoxanthine.
Assays are performed in sterile 96-well microtiter plates, each well containing 200 μl of parasite culture (0.15% parasitemia, 2.5% hematocrit) with or without serial drug solutions. Seven 2-fold dilutions are used, covering a range from […] to 0.078 μg/mL. For active compounds the highest concentration is lowered (e.g., to […]); for plant extracts the highest concentration is increased to 50 μg/mL. […] After 48 hours of incubation at 37° C., 0.5 μCi ^3H-hypoxanthine is added to each well. Cultures are incubated for a further 24 h before being harvested onto glass-fiber filters and washed with distilled water. The radioactivity is counted using a Betaplate liquid scintillation counter (Wallac, Zurich, Switzerland). The results are recorded as counts per minute per well at each drug concentration and expressed as percentage of the untreated controls. IC50 values are calculated from the sigmoidal inhibition curves using Microsoft EXCEL.

The subject of assay [1] is T. b. rhodesiense STIB 900. In words: African sleeping sickness in vitro screening model (Alamar Blue). Format: cell-based, Trypanosoma brucei rhodesiense. Particulars: Trypanosoma brucei. Here is the method: Bloodstream from trypomastigotes of the strains (a) and (c) are maintained in Minimal Essential Medium (MEM) with Earle's salts supplemented according to Baltz, et al., (EMBO J. 4:1273-1277, 1985) with 25 mM N-2-hydroxyethylpiperazine-N′-2-ethane-sulphonic acid (HEPES), 1 g/L additional glucose, 1% MEM non-essential amino acids (100×), 0.2 mM 2-mercaptoethanol, 2 mM sodium pyruvate, 0.1 mM hypoxanthine and 15% heat-inactivated horse serum.
All cultures and assays are conducted at 37° C. under an atmosphere of 5% CO2 in air.
After use the stocks are kept at −20° C. For the assays, the compound is further diluted in serum-free culture medium and finally to the appropriate concentration in complete medium without hypoxanthine.
Assays are performed in 96-well microtiter plates, each well containing 100 μL of culture medium with 8×10^3 bloodstream forms with or without a serial drug dilution. The highest concentration for the test compounds is 90 μg/mL. Seven 3-fold drug dilutions are used, covering a range from 90 μg/mL to 0.123 μg/mL. Each drug is tested in duplicate. Active compounds are tested twice for confirmation. The final result is the mean of the four individual IC50 values. After 72 hrs of incubation, the plates are inspected under an inverted microscope to assure growth of the controls and sterile conditions.
Ten μL of Alamar Blue (12.5 mg resazurin dissolved in 100 mL distilled water) are now added to each well and the plates are incubated for another 2 hours. Then the plates are read with a Spectramax GEMINI XS microplate fluorometer (Molecular Devices Cooperation, Sunnyvale, Calif., USA) using an excitation wavelength of 536 nm and an emission wave length of 588 nm.
IC50 values are determined using the microplate reader software Softmax Pro (Molecular Devices Cooperation, Sunnyvale, Calif., USA).

For assay [2], the system named is Trypanosoma cruzi Tulahuen C2C4 strain. In words: Chagas disease in vitro screening model (beta-galactosidase strain in L-6 cells). Format: cell-based. Particulars: Trypanosoma cruzi, TULAHUEN, L6; read-out: T. cruzi IC50. Here is the method:
Trypanosoma cruzi Tulahuen C2C4 strain, containing the β-galactosidase (Lac Z) gene (Buckner et al., Antimicrob. Agents Chemother 40:2592-2597, 1996) is used for this study.
The infective amastigote and trypomastigote stages are cultivated in L-6 cells (a rat skeletal myoblast cell line) in RPMI 1640 medium supplemented with 2 mM L-glutamine and 10% heat-inactivated fetal bovine serum in 12.5 cm^2 tissue culture flasks. Amastigotes develop intracellularly, differentiate into trypomastigotes, and leave the host cell. These trypomastigotes infect new L-6 cells and are the stages used to initiate an infection in the assay. All cultures and assays are conducted at 37° C. under an atmosphere of 5% CO2 in air.
(§1) After use the stocks are kept at −20° C. For the assays, the compound is further diluted to the appropriate concentration using complete medium.
Assays are performed in sterile 96-well microtiter plates, each well containing 100 μl medium with 2×10^3 L-6 cells. After 24 hours, […] of a trypanosome suspension containing 5×10^3 trypomastigote bloodstream forms from culture are added to the wells. Forty-eight hours later, the medium is removed from the wells and replaced by […] fresh medium, with or without a serial drug dilution. At this point the L-6 cells should be infected with amastigotes and no free trypomastigotes should be in the medium. Seven 3-fold drug dilutions are used, covering a range from 90 μg/mL to 0.123 μg/mL. Each drug is tested in duplicate. Active compounds are tested twice for confirmation. After 96 hours of incubation the plates are inspected under an inverted microscope to assure growth of the controls and sterility.
Then the substrate CPRG/Nonidet (50 μl) is added to all wells. A colour reaction will become visible within 2-6 hours and can be read photometrically at 540 nm. Data are transferred into a graphics program (e.g., EXCEL), sigmoidal inhibition curves determined and IC50 values calculated.

Assay [3] has as its system Leishmania donovani strain MHOM/ET1671L82. In words: Leishmaniasis in vitro screening model (axenic amastigotes, Alamar Blue). Format: cell-based. Particulars: Leishmania donovani; read-out: L. donovani IC50. Here is the method: The Leishmania donovani strain MHOM/ET1671L82 (obtained from Dr. S. Croft, London School of Hygiene and Tropical Medicine) is used. The strain is maintained in the Syrian Golden hamster. Amastigotes are collected from the spleen of an infected hamster. Amastigotes are grown in axenic culture at 37° C. in SM medium (Cunningham I., J. Protozoal. 24:325-329, 1977) at pH 5.4 supplemented with 10% heat-inactivated fetal bovine serum (FBS) under an atmosphere of 5% CO2 in air.
as §1
Assays are performed in 96-well flat-bottom microtiter plates (Costar, Corning Inc.), each well containing 100 μl of culture medium with 105 amastigotes from axenic culture with or without a serial drug dilution. Concentration of amastigotes is determined in a CASY cell analyzing system (Scharfe System, Reutlingen, Germany). Before the amastigotes are counted, the parasite culture is passed twice through a 22-gauge needle to break up clusters of amastigotes.
The highest concentration for the test compounds is 90 μg/mL. Seven 3-fold dilutions are used, covering a range from […]. Each drug is tested in duplicate. Active compounds are tested twice for confirmation. After 72 hours of incubation, the plates are inspected under an inverted microscope to assure growth of the controls and sterile conditions.
Ten μL of Alamar Blue (12.5 mg resazurin dissolved in 100 mL distilled water) are then added to each well and the plates are incubated for another 2 hours. Then the plates are read with a Spectramax GEMINI XS microplate fluorometer (Molecular Devices Cooperation, Sunnyvale, Calif., USA) using an excitation wave length of 536 nm and an emission wave length of 588 nm.
Data are analyzed using the microplate reader software Softmax Pro (Molecular Devices Cooperation, Sunnyvale, Calif., USA). Decrease of fluorescence (i.e. inhibition) is expressed as percentage of the fluorescence of control cultures and plotted against the drug concentrations. The IC50 value is calculated from the sigmoidal inhibition curve by the software program.

Turning to `Fc1cccc(B(Oc2cccc3cccnc23)c2cccc(Cl)c2)c1` [Compound 17, (3-Chlorophenyl)(3-fluorophenyl)borinic acid quinolin-8-yl ester], the IC50 is 1.77 µg/mL (≈ 4.89 µM) in the assay on P. falciparum K1, 0.18 µg/mL (≈ 0.498 µM) in assay [1], 1.06 µg/mL (≈ 2.95 µM) in assay [2] and 0.42 µg/mL (≈ 1.16 µM) in assay [3].

Consider `CC1(C)COC(c2cccc(B(Oc3cccc4cccnc34)c3cccc(F)c3)c2)=N1` [Compound 19, [3-(4,5-Dihydro-4,4-dimethyloxazol-2yl)phenyl](3-fluorophenyl)borinic acid quinolin-8-yl ester], for which the IC50 with P. falciparum K1 was determined as 1.89 µg/mL (≈ 4.45 µM); in assay [1], 0.32 µg/mL (≈ 0.754 µM); in assay [2], 1.33 µg/mL (≈ 3.15 µM); in assay [3], 0.66 µg/mL (≈ 1.56 µM).

As to `CC1(C)COC(c2cccc(B(Oc3cccc4cccnc34)C3CC3)c2)=N1` [Compound 20, Cyclopropyl[3-(4,5-dihydro-4,4-dimethyloxazol-2yl)phenyl]borinic acid quinolin-8-yl ester], the IC50 was found to be 1.84 µg/mL (≈ 4.97 µM) in the assay with P. falciparum K1, 0.245 µg/mL (≈ 0.662 µM) in assay [1], 0.86 µg/mL (≈ 2.32 µM) in assay [2] and 0.55 µg/mL (≈ 1.49 µM) in assay [3].

Take `N#Cc1ccc(B(Oc2cccc3cccnc23)c2ccc(F)cc2)cc1` [Compound 22, (4-Cyanophenyl)(4-fluorophenyl)borinic acid quinolin-8-yl ester]: the IC50 in the assay with P. falciparum K1 was determined as 1.46 µg/mL (≈ 4.15 µM); in assay [1], 0.325 µg/mL (≈ 0.923 µM); in assay [2], 0.845 µg/mL (≈ 2.4 µM); in assay [3], 0.34 µg/mL (≈ 0.965 µM).

For the compound `Cc1ccccc1B(Oc1cccc2cccnc12)c1cccc(Cl)c1` [Compound 25, (3-Chlorophenyl)(2-methylphenyl)borinic acid quinolin-8-yl ester], the IC50 was determined as 1.81 µg/mL (≈ 5.06 µM) with P. falciparum K1, 0.295 µg/mL (≈ 0.825 µM) in assay [1], 0.905 µg/mL (≈ 2.53 µM) in assay [2] and 0.41 µg/mL (≈ 1.15 µM) in assay [3].

Regarding `N#Cc1cccc(B(Oc2cccc3cccnc23)c2cccc(F)c2)c1` [Compound 29, (3-Cyanophenyl)(3-fluorophenyl)borinic acid quinolin-8-yl ester], the IC50 with P. falciparum K1 is 1.83 µg/mL (≈ 5.2 µM); in assay [1] it was 0.33 µg/mL (≈ 0.937 µM); in assay [2], 0.68 µg/mL (≈ 1.93 µM); in assay [3], 0.4 µg/mL (≈ 1.14 µM).

For the compound `Fc1cccc(B(Oc2cccc3cccnc23)c2ccccc2Cl)c1` [Compound 30, (2-Chlorophenyl)(3-fluorophenyl)borinic acid quinolin-8-yl ester], the IC50 was 1.74 µg/mL (≈ 4.81 µM) with P. falciparum K1, 0.305 µg/mL (≈ 0.843 µM) in assay [1], 0.82 µg/mL (≈ 2.27 µM) in assay [2] and 0.58 µg/mL (≈ 1.6 µM) in assay [3].

Take `Cc1cc(B(Oc2cccc3cccnc23)c2cccc(C#N)c2)ccc1Cl` [Compound 31, (4-Chloro-3-methylphenyl)(3-cyanophenyl)borinic acid quinolin-8-yl ester]: the IC50 with P. falciparum K1 was determined as 1.83 µg/mL (≈ 4.78 µM); in assay [1] it was 0.28 µg/mL (≈ 0.732 µM); in assay [2], 0.79 µg/mL (≈ 2.06 µM); in assay [3], 0.83 µg/mL (≈ 2.17 µM).

As to `N#Cc1cccc(B(Oc2cccc3cccnc23)c2cc(F)ccc2F)c1` [Compound 32, (3-Cyanophenyl)(2,5-difluorophenyl)borinic acid quinolin-8-yl ester], the IC50 with P. falciparum K1 worked out at 1.82 µg/mL (≈ 4.92 µM); in assay [1], 0.41 µg/mL (≈ 1.11 µM); in assay [2], 0.73 µg/mL (≈ 1.97 µM); in assay [3], 0.41 µg/mL (≈ 1.11 µM).

As for `N#Cc1cccc(B(Oc2cccc3cccnc23)c2ccccc2F)c1` [Compound 33, (3-Cyanophenyl)(2-fluorophenyl)borinic acid quinolin-8-yl ester], the IC50 worked out at 1.79 µg/mL (≈ 5.08 µM) in the assay on P. falciparum K1, 0.3 µg/mL (≈ 0.852 µM) in assay [1], 1.39 µg/mL (≈ 3.95 µM) in assay [2] and 0.61 µg/mL (≈ 1.73 µM) in assay [3].

Take `Cc1cc(B(Oc2cccc3cccnc23)c2ccc(C#N)cc2)ccc1Cl` [Compound 34, (4-Chloro-3-methylphenyl)(4-cyanophenyl)borinic acid quinolin-8-yl ester]: the IC50 with P. falciparum K1 amounted to 1.39 µg/mL (≈ 3.63 µM); in assay [1], 0.23 µg/mL (≈ 0.601 µM); in assay [2], 0.82 µg/mL (≈ 2.14 µM); in assay [3], 0.07 µg/mL (≈ 0.183 µM).

Take `N#Cc1ccc(B(Oc2cccc3cccnc23)c2cc(F)ccc2F)cc1` [Compound 35, (4-Cyanophenyl)(2,5-difluorophenyl)borinic acid quinolin-8-yl ester]: the half-inhibitory concentration (IC50) is 1.74 µg/mL (≈ 4.7 µM) in the assay with P. falciparum K1, 0.275 µg/mL (≈ 0.743 µM) in assay [1], 0.705 µg/mL (≈ 1.9 µM) in assay [2] and 0.38 µg/mL (≈ 1.03 µM) in assay [3].

As to `Clc1ccccc1C=CBOc1cccc2cccnc12` [Compound 36, (2-Chlorophenyl)vinyl borinic acid quinolin-8-yl ester], the IC50 with P. falciparum K1 is 1.5 µg/mL (≈ 5.11 µM); in assay [1], 0.18 µg/mL (≈ 0.613 µM); in assay [2] it was 0.785 µg/mL (≈ 2.67 µM); in assay [3] it was 0.39 µg/mL (≈ 1.33 µM).
